Patent US7446127B2, “Chroman carboxylic acid derivatives for the treatment of diabetes and lipid disorders” (SK Holdings Co, Ltd., priority 2003, dated 2008)

Legend:
[1] = tested on: differentiated 3T3-L1 adipocytes; test: Glucose transport assay (2-deoxy-D-glucose uptake); assay type: cell-based; conditions: 48 hr; for Fold Stimulation (50 μM) of 2-deoxy-D-glucose uptake, Insulin + Compound: 50 μM compound + 100 nM insulin; for fold induction at 50 µM: Mus musculus, 50 μM compound alone, read-out: Fold Stimulation (50 μM) of 2-deoxy-D-glucose uptake, Compound only
Procedure: 3T3-L1 fibroblasts (American Type Culture Collection) were plated and grown for 2 days postconfluence in Dulbecco's modified Eagle's medium (DMEM; 4,500 mg/L glucose, HyClone) supplemented 10% FBS, 10 μg/mL penicillin and streptomycin in an atmosphere of 5% CO2 at 37° C. Adipocyte differentiation was then induced using standard protocol. After 48 hr, the differentiation medium was replaced with maintenance medium containing DMEM supplemented with 10% FBS. The maintenance medium was changed every 3 days until the cells were utilized for experimentation. Glucose transport activity was measured in the presence or absence of insulin and the protocol was modified from Kletzien, R F et al. (1992) Molecular Pharmacology 41:393-398. Briefly, differentiated 3T3-L1 adipocytes were incubated with vehicle (DMSO), insulin (100 nM) alone, test compound (50 μM) alone and a combination of insulin (100 nM)+test compound (50 μM) for 48 hr. Medium was changed twice a day in the presence of compound. Glucose uptake was measured using 2-Deoxy-D-[1−^3H] glucose as label after 90 min incubation with each compound. […] In the series of compounds, one of the best result was obtained with 7-[2-(5-methyl-2-phenyl-4-oxazolyl)-ethoxy]-chroman-3-carboxylic acid (Example 1).

high fat (HF) rats = test: Oral Glucose Tolerance Test (OGTT) in high fat (HF) rats; assay type: in vivo, Sprague-Dawley rats; conditions: 30 mg/kg/d for 9 days
Procedure: (§1) An Oral Glucose Tolerance Test (OGTT) was performed both in db/db mice and in high fat (HF) rats after dosing 30 mg/kg/d of compounds of Examples 1 and 2 for 9 days. For OGTT and ITT studies, Sprague-Dawley rats were prepared by feeding high fat (HF) diet (60% calorie from fat) for 6 weeks. Before the study, they were matched into groups on the basis of blood glucose levels.

db/db mice [2] = test: Oral Glucose Tolerance Test (OGTT) in db/db mice; assay type: in vivo; conditions: 30 mg/kg/d for 9 days
Procedure: (§2) Mice used in this study were standard model of type II diabetes developed by Jackson Laboratories (Bar Harbor, Me.). Male, 8-week-old db/db mice were housed six per cage in hanging wire bottom cages with standard laboratory conditions. The mice had free access to normal chow (Purina Rodent Chow) and water. At the age of 11-12 weeks, mice were bled in the tail for glucose matching among the groups (n=6 per group). The grouped mice were then dosed orally with vehicle (CMC) or with compounds of formula I (30 mg/kg/d) for 7 days. Compound of formula I at 30 mg/kg/d was dosed as suspension in 0.5% CMC+0.2% Tween 80 in H2O. Fresh suspension was prepared for 8 days dosing and kept in a refrigerator. The suspension was administered by oral gavage daily in the morning. The control group received vehicle (dose 10 mL/kg). Blood glucose concentrations were monitored at basal and 3 hr post dose on day 4 and 8. For blood sampling, mice were placed in a restrainer and drop of blood was obtained by nick in the tip of the tail. Blood glucose concentrations were determined either by putting a drop of blood on a glucose strip for analysis by a glucometer or using a 10 μL plasma sample in a YSI (Yellow Spring Instruments, OH) analyzer. Results are expressed as absolute blood glucose concentrations (mg/dL) and % reduction that is achieved reduction relative to vehicle treated control group. Animals having more than 300 mg/dL of blood glucose were used for testing. Statistical significance (p<0.05) is given versus the appropriate sample in vehicle treated animals. On day 7, the mice were fasted overnight for 18 hrs and were bled in the tail for the glucose level checking then dosed with the testing compounds (30 mg/kg/d). After 2 hr, blood samples were taken and the rats were dosed with 10% glucose in water (10 ml/kg) orally and blood glucose was monitored at 15, 30, 60, 90 and 120 min after dosing. The blood samples were centrifuged and plasma samples were collected and analyzed for insulin, Tg and FFA. An Oral Glucose Tolerance Test (OGTT) was performed both in db/db mice and in high fat (HF) rats after dosing 30 mg/kg/d of compounds of Examples 1 and 2 for 9 days. For OGTT and ITT studies, Sprague-Dawley rats were prepared by feeding high fat (HF) diet (60% calorie from fat) for 6 weeks. Before the study, they were matched into groups on the basis of blood glucose levels.

[3] = Solubility in dosing vehicle; assay type: physicochemical
Source text: It appeared that compounds of Examples 1 and 2 were not soluble in 0.5% CMC vehicle.

STZ rat = test: Blood glucose lowering effect in STZ rat; assay type: in vivo; conditions: STZ rat (data not shown)
HF rat = test: Insulin tolerance test (ITT) in HF rat; assay type: in vivo, Sprague-Dawley rats; conditions: 30 mg/kg oral, insulin 0.25 U/kg i.p. 2 hr later
Procedure: as §1, with “levels. Insulin tolerance test (ITT) was performed in HF rat which were prepared in the same manner with OGTT test animal. On the day of the study, rats were orally dosed with the testing compounds (30 mg/kg) and 2 hr later, rats were dosed with insulin (0.25 U/kg, i.p.) in 0.1% BSA solution in saline. Blood glucose of the rat was measured at 15, 30, 60, 120 min after dose.” for “levels.”

db/db mice [4] = test: Efficacy test for blood glucose lowering (db/db mice); assay type: in vivo; conditions: 30 mg/kg/d oral
Procedure: as §2, with “FFA.” for “FFA. An Oral Glucose Tolerance Test (OGTT) was performed both in db/db mice and in high fat (HF) rats after dosing 30 mg/kg/d of compounds of Examples 1 and 2 for 9 days. For OGTT and ITT studies, Sprague-Dawley rats were prepared by feeding high fat (HF) diet (60% calorie from fat) for 6 weeks. Before the study, they were matched into groups on the basis of blood glucose levels.”

| Structure (SMILES) | Fold Stimulation (50 μM) of 2-deoxy-D-glucose uptake, Insulin + Compound [1] [fold] | fold induction at 50 µM [1] | further results |
| --- | --- | --- | --- |
| Cc1oc(-c2ccc(F)cc2)nc1CCOc1ccc2c(c1)OCC(C(=O)O)C2 (stereo not shown) [Example 3] | 5.9 | 1.3 | – |
| Cc1oc(-c2ccc(-c3ccccc3)cc2)nc1CCOc1ccc2c(c1)OCC(C(=O)O)C2 (stereo not shown) [Example 2, 7-[2-(5-Methyl-2-(4-phenyl)phenyl-4-oxazolyl)ethoxy]chromane-3-carboxylic acid] | 6.4 | 1.5 | AUC of Glucose in high fat rat, % reduction (high fat (HF) rats): 10.1%; AUC of Glucose in high fat rat, Observed value (high fat (HF) rats; control 14053): 12631 mg/dl × 120 min; AUC of Glucose in db/db, % reduction (db/db mice [2]): 14.0%; AUC of Glucose in db/db, Observed value (db/db mice [2]; control 40858): 32406 mg/dl × 120 min; solubility in 0.5% CMC vehicle [3]: not soluble; blood glucose lowering effect (STZ rat): did not reduce blood glucose; AUC of Glucose in high fat rat, % reduction (HF rat): 4.2%; AUC of Glucose in high fat rat, Observed value (HF rat; control 13359): 12796 mg/dl × 120 min; Fatty acid % reduction (db/db mice [4]; plasma): −21.1%; Insulin % reduction (db/db mice [4]; plasma): −72.7%; Glucose Max % efficacy (db/db mice [4]; suspension in 0.5% CMC + 0.2% Tween 80): 70.3%; Glucose Observed value (db/db mice [4]; suspension in 0.5% CMC + 0.2% Tween 80, control 261.2): 148.3 mg/dL |
| CCc1ccc(CCOc2ccc(CC3SC(=O)NC3=O)cc2)nc1 (stereo not shown) [Pioglitazone, reference compound] | 7.6 | 1.9 | – |
| Cc1oc(-c2ccccc2)nc1CCCOc1ccc2c(c1)OCC(C(=O)O)C2 (stereo not shown) [Example 7, 7-[3-(5-Methyl-2-phenyl-4-oxazolyl)propoxy]chromane-3-carboxylic acid] | 6.5 | 1.4 | – |
| Cc1oc(-c2ccc(-c3ccccc3)cc2)nc1COc1ccc2c(c1)OCC(C(=O)O)C2 (stereo not shown) [Example 11] | 4.6 | 1.3 | – |
| COC(=O)C1COc2cc(OCCc3nc(-c4ccccc4)oc3C)ccc2C1 (stereo not shown) [Example 12, Methyl 7-[2-(5-Methyl-2-phenyl-4-oxazolyl)ethoxy]chromane-3-carboxylate] | 6.0 | 1.1 | – |
| O=C(O)C1COc2cc(OCCc3nc(-c4ccccc4)oc3-c3ccccc3)ccc2C1 (stereo not shown) [Example 5] | 8.1 | 1.7 | – |
| Cc1oc(-c2ccccc2)nc1CCOc1ccc2c(c1)OCC(CC(=O)O)C2 (stereo not shown) [Example 14, {7-[2-(5-Methyl-2-phenyl-oxazol-4-yl)-ethoxy]-chroman-3-yl}-acetic acid] | 6.9 | 1.4 | – |
| Cc1oc(-c2ccccc2)nc1CCOc1ccc2c(c1)OCC(C(N)=O)C2 (stereo not shown) [Example 13, 7-[2-(5-Methyl-2-phenyl-4-oxazolyl)ethoxy]chromane-3-carboxylic acid amide] | 8.8 | 1.7 | – |
| Cc1oc(-c2ccccc2)nc1CCOc1ccc2c(c1)OCC(C(=O)NS(C)(=O)=O)C2 (stereo not shown) [Example 9] | 6.2 | 1.2 | – |
| Cc1oc(-c2ccccc2)nc1COc1ccc2c(c1)OCC(C(=O)O)C2 (stereo not shown) [Example 6, 7-[(2-phenyl-5-methyl-1,3-oxazol-4-yl)methoxy]chromane-3-carboxylic acid] | 10.7 | 1.4 | – |
| Cc1oc(-c2ccccc2)nc1CCOc1ccc2c(c1)OCC(C(=O)NS(=O)(=O)c1ccccc1)C2 (stereo not shown) [Example 8] | 8.8 | 1.5 | – |
| Cc1oc(-c2ccc(Br)cc2)nc1COc1ccc2c(c1)OCC(C(=O)O)C2 (stereo not shown) [Example 10, 7-[(2-(4-bromophenyl)-5-methyl-1,3-oxazol-4-yl)methoxy]chromane-3-carboxylic acid] | 5.1 | 1 | – |
| Cc1oc(-c2cccs2)nc1CCOc1ccc2c(c1)OCC(C(=O)O)C2 (stereo not shown) [Example 4, 7-[2-(5-methyl-2-thien-2-yl-1,3-oxazol-4-yl)ethoxy]chromane-3-carboxylic acid] | 7.6 | 1.5 | – |
